Test results from the kinase profiling compilation of Christmann-Franck et al. (2016).

Experiments:
Assay in all cases: KINOMEscan competition binding
Details in all cases: compound 1.0 µM
GAK (human) = GAK (human) (UniProt O14976)
PRKAA2 (human) = PRKAA2 (human) (UniProt P54646)
HUNK (human) = HUNK (human) (UniProt P57058)
PRKG1 (human) = PRKG1 (human) (UniProt Q13976)
STK25 (human) = STK25 (human) (UniProt O00506)
NEK9 (human) = NEK9 (human) (UniProt Q8TD19)
CSNK1G1 (human) = CSNK1G1 (human) (UniProt Q9HCP0)
AAK1 (human) = AAK1 (human) (UniProt Q2M2I8)
IRAK3 (human) = IRAK3 (human) (UniProt Q9Y616)
PAK2 (human) = PAK2 (human) (UniProt Q13177)
ZAP70 (human) = ZAP70 (human) (UniProt P43403)
FER (human) = FER (human) (UniProt P16591)
TNIK (human) = TNIK (human) (UniProt Q9UKE5)
RPS6KA4 KD2 (human) = RPS6KA4 KD2 (human) (UniProt O75676)
ADCK4 (human) = ADCK4 (human) (UniProt Q96D53)
STK24 (human) = STK24 (human) (UniProt Q9Y6E0)
SRPK1 (human) = SRPK1 (human) (UniProt Q96SB4)
ROCK2 (human) = ROCK2 (human) (UniProt O75116)
[1] = system: MET (human), P08581 [M1250T]
[2] = system: RET (human), P07949 [V804M]
LATS1 (human) = LATS1 (human) (UniProt O95835)
HIPK2 (human) = HIPK2 (human) (UniProt Q9H2X6)
ROS1 (human) = ROS1 (human) (UniProt P08922)
PAK6 (human) = PAK6 (human) (UniProt Q9NQU5)
MELK (human) = MELK (human) (UniProt Q14680)
SRPK3 (human) = SRPK3 (human) (UniProt Q9UPE1)
ERN1 (human) = ERN1 (human) (UniProt O75460)
MAP3K9 (human) = MAP3K9 (human) (UniProt P80192)
CaMK1 (human) = CaMK1 (human) (UniProt Q14012)
DAPK3 (human) = DAPK3 (human) (UniProt O43293)
MAP3K6 (human) = MAP3K6 (human) (UniProt O95382)
CAMK2D (human) = CAMK2D (human) (UniProt Q13557)
AXL (human) = AXL (human) (UniProt P30530)
HIPK4 (human) = HIPK4 (human) (UniProt Q8NE63)
MKNK1 (human) = MKNK1 (human) (UniProt Q9BUB5)
[3] = target: JAK3 JH1 catalytic (human) (UniProt P52333)
TEK (human) = TEK (human) (UniProt Q02763)
[4] = system: FLT3 (human), P36888 [D835Y]
RIOK1 (human) = RIOK1 (human) (UniProt Q9BRS2)
CSNK1D (human) = CSNK1D (human) (UniProt P48730)

Chain of HUNK (human) (P57058 whole entry, looked up): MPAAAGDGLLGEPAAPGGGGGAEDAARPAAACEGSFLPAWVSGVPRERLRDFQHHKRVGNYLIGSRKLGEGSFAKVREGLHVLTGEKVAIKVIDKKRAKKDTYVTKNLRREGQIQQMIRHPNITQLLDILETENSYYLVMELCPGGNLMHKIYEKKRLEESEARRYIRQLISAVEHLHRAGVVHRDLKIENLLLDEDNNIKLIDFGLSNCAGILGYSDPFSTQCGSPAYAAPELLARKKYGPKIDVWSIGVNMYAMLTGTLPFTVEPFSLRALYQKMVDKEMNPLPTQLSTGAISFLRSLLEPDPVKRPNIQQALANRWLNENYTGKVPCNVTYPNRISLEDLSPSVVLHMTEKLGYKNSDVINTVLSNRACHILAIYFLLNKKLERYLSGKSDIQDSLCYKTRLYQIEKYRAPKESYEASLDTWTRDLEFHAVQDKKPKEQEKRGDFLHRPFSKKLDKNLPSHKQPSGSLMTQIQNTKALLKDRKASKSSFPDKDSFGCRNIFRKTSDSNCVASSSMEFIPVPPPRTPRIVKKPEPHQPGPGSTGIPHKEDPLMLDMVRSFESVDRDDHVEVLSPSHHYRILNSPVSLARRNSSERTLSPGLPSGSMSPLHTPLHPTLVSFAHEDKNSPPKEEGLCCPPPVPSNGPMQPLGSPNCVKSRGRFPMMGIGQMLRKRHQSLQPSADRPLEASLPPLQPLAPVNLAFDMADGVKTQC
Chain of RET (human), P07949 [V804M] (P07949 whole entry V804M, looked up): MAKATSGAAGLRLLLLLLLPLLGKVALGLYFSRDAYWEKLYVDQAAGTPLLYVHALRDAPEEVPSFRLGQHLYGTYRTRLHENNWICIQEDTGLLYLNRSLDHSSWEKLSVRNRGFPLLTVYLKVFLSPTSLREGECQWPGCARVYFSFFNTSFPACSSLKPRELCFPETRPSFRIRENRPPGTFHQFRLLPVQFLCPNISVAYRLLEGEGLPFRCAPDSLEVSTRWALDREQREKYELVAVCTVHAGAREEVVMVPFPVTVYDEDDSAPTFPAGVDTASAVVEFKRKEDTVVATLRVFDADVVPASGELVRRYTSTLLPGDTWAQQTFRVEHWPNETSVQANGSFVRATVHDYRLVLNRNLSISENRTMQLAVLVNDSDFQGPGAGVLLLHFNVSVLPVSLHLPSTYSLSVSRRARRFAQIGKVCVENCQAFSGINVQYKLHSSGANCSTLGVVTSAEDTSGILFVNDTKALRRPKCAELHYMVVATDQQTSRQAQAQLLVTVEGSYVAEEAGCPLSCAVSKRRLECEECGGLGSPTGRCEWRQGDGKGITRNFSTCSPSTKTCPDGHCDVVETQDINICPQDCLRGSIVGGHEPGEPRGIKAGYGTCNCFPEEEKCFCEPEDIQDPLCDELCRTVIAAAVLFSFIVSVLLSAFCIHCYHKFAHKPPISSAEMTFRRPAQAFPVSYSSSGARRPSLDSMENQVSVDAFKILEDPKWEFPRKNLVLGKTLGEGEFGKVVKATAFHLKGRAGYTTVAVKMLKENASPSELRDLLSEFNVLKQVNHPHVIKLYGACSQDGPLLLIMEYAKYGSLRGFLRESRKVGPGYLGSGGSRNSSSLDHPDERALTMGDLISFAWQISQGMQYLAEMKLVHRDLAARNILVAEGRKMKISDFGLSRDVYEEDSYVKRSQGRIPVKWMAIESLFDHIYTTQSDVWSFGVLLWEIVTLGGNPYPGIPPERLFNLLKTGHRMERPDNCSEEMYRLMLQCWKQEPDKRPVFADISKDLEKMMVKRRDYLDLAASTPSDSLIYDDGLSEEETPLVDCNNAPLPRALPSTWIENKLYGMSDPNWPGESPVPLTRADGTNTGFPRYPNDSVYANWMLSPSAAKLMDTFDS
Chain of ERN1 (human) (O75460 whole entry, looked up): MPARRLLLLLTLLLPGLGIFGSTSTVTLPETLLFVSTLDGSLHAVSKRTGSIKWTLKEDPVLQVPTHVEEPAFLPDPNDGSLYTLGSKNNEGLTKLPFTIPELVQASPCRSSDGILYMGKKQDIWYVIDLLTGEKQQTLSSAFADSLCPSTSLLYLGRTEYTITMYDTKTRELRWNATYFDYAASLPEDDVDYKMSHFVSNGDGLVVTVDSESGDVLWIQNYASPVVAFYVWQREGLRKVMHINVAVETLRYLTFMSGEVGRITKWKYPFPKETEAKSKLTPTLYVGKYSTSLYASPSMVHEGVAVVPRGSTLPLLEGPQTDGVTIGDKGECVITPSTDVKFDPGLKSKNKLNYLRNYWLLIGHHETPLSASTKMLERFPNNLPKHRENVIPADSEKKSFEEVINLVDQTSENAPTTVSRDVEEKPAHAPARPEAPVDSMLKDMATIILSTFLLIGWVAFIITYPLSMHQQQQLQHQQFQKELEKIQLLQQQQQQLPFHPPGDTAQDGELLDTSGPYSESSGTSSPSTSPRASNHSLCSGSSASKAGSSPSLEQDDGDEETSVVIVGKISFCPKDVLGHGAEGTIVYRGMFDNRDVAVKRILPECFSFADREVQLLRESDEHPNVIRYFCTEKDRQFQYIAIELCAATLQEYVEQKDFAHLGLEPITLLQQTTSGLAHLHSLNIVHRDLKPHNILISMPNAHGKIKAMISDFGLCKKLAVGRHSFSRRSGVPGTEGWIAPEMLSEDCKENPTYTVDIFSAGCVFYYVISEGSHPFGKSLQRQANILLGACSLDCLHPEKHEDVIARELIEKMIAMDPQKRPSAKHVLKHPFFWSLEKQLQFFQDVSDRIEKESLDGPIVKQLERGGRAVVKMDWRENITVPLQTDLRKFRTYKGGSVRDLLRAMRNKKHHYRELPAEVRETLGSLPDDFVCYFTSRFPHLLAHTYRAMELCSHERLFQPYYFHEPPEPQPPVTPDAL
Chain of HIPK4 (human) (Q8NE63 whole entry, looked up): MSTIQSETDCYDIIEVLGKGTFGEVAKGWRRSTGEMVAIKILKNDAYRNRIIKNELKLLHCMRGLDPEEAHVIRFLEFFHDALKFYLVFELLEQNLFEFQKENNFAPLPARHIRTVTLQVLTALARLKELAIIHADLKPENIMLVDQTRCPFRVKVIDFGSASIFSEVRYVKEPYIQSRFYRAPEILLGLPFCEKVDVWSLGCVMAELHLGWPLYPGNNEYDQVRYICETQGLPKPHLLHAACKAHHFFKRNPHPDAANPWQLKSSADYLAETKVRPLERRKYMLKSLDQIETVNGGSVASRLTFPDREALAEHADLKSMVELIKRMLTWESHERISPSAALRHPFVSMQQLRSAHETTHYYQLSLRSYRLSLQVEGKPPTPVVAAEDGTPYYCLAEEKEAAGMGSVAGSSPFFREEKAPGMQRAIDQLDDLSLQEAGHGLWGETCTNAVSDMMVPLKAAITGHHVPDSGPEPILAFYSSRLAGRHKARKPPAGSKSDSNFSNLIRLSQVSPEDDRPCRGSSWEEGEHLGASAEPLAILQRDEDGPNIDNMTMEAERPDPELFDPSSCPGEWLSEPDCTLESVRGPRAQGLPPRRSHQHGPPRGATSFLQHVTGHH
Chain of TEK (human) (Q02763 whole entry, looked up): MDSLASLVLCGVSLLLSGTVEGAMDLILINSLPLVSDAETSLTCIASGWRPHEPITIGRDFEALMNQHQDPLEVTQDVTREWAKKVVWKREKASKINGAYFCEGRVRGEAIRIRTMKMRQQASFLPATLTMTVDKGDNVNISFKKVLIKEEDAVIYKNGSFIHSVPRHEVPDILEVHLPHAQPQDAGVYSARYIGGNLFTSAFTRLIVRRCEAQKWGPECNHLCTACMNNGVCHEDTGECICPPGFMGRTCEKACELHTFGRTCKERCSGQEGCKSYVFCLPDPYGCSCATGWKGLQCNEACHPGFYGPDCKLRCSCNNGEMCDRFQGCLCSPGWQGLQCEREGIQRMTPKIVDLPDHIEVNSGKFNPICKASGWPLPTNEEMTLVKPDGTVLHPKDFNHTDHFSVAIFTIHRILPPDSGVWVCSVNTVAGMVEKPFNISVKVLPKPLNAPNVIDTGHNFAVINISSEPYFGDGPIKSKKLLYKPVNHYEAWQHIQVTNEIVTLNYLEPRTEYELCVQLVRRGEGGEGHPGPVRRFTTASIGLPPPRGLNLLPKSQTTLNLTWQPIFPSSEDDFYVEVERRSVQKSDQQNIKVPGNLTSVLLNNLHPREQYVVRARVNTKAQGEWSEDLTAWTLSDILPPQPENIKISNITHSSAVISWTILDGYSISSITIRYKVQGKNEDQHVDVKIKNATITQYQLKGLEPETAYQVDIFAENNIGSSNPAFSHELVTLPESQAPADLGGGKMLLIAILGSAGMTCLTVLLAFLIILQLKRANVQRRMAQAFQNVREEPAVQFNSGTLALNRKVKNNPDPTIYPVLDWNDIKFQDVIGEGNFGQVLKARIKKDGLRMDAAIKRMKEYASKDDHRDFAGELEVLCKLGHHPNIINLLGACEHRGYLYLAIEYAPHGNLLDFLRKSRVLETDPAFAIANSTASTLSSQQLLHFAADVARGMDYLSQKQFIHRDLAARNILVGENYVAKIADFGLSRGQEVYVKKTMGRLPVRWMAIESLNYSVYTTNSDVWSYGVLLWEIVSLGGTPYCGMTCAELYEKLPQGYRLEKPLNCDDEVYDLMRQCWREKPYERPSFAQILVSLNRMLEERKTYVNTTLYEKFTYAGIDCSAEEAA
Chain of STK24 (human) (Q9Y6E0 whole entry, looked up): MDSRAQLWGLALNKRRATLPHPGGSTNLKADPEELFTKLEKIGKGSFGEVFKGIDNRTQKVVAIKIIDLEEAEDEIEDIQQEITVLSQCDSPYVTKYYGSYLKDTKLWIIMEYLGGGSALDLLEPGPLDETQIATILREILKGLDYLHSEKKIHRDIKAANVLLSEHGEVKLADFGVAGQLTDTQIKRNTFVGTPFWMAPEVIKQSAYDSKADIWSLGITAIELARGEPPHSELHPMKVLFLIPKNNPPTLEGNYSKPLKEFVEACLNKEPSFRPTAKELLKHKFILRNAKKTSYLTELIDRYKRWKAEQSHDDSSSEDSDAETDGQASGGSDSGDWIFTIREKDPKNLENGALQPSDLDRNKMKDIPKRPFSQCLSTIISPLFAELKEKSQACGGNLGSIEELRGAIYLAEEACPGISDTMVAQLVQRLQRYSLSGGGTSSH

Nc1cc(C(F)(F)F)c(-c2cc(N3CCOCC3)nc(N3CCOCC3)n2)cn1
inhibition of binding (GAK (human)): 6% | inhibition of binding (PRKAA2 (human)): 0% | inhibition of binding (HUNK (human)): 18% | inhibition of binding (PRKG1 (human)): 0% | inhibition of binding (STK25 (human)): 0% | inhibition of binding (NEK9 (human)): 0% | inhibition of binding (CSNK1G1 (human)): 25% | inhibition of binding (AAK1 (human)): 0% | inhibition of binding (IRAK3 (human)): 0% | inhibition of binding (PAK2 (human)): 17% | inhibition of binding (ZAP70 (human)): 4% | inhibition of binding (FER (human)): 0% | inhibition of binding (TNIK (human)): 1% | inhibition of binding (RPS6KA4 KD2 (human)): 0% | inhibition of binding (ADCK4 (human)): 0% | inhibition of binding (STK24 (human)): 5% | inhibition of binding (SRPK1 (human)): 0% | inhibition of binding (ROCK2 (human)): 0% | inhibition of binding [1]: 20% | inhibition of binding [2]: 14% | inhibition of binding (LATS1 (human)): 4% | inhibition of binding (HIPK2 (human)): 0% | inhibition of binding (ROS1 (human)): 0% | inhibition of binding (PAK6 (human)): 16% | inhibition of binding (MELK (human)): 0% | inhibition of binding (SRPK3 (human)): 0% | inhibition of binding (ERN1 (human)): 5% | inhibition of binding (MAP3K9 (human)): 18% | inhibition of binding (CaMK1 (human)): 4% | inhibition of binding (DAPK3 (human)): 10% | inhibition of binding (MAP3K6 (human)): 0% | inhibition of binding (CAMK2D (human)): 0% | inhibition of binding (AXL (human)): 7% | inhibition of binding (HIPK4 (human)): 21% | inhibition of binding (MKNK1 (human)): 0% | inhibition of binding [3]: 100% | inhibition of binding (TEK (human)): 0% | inhibition of binding [4]: 12% | inhibition of binding (RIOK1 (human)): 11% | inhibition of binding (CSNK1D (human)): 27%
